# Experimental data: patent publication US12448375B2, “Kinase inhibitors for the treatment of neurodegenerative diseases” (Ohio State Innovation Foundation, priority 2019, dated 2025)
# What was measured:
# Format in all cases: biochemical
# Details in all cases: HotSpot radiometric assay, 33P-ATP
# [1] = biological target: T1, JNK1 (Homo sapiens, UniProt P45983); assay: HotSpot Kinase Assay, JNK1
# T1 construct: purchased Reaction Biology Corp
# Method: (§1) The anti-JNK3 activity of compounds prepared as in the previous examples was evaluated using a Reaction Biology Corp. HotSpot Kinase Assay. Base reaction buffer was 20 mM HEPES (4-(2-hydroxyethyl)-1-piperazineethanesulfonic acid) at pH 7.5 with 10 mM MgCl2, 1 mM EGTA (ethylene glycol-bis(β-aminoethyl ether)-N,N,N′,N′-tetracetic acid), 0.02% Brij™ 35, 0.02 mg/mL BSA (bovine serum albumin), 0.1 mM Na3VO4, 2 mM DTT (dithiothreitol), and 1% DMSO. Required cofactors were added individually to each kinase reaction.
# (§2) Activity against related enzymes JNK1 and P38a was further assessed using the same assay.
# [2] = biological target: T2, p38a (Homo sapiens, UniProt Q16539); assay: HotSpot Kinase Assay, P38a
# T2 construct: purchased Reaction Biology Corp
# T2 sequence (Q16539 whole entry): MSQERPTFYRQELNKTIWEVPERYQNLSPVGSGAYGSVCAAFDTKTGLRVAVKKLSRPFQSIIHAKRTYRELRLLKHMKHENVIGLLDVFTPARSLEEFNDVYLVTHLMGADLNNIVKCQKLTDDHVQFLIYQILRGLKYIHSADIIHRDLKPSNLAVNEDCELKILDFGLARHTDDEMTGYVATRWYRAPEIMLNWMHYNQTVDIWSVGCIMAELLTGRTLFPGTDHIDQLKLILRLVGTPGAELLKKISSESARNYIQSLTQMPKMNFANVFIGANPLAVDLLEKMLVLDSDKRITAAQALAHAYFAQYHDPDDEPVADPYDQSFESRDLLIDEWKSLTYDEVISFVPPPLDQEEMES
# Method: as §1, §2
# [3] = biological target: T3, JNK3 (Homo sapiens, UniProt P53779); assay: HotSpot Kinase Assay (Reaction Biology Corp.), anti-JNK3 activity
# T3 construct: purchased Reaction Biology Corp
# T3 sequence (P53779 whole entry): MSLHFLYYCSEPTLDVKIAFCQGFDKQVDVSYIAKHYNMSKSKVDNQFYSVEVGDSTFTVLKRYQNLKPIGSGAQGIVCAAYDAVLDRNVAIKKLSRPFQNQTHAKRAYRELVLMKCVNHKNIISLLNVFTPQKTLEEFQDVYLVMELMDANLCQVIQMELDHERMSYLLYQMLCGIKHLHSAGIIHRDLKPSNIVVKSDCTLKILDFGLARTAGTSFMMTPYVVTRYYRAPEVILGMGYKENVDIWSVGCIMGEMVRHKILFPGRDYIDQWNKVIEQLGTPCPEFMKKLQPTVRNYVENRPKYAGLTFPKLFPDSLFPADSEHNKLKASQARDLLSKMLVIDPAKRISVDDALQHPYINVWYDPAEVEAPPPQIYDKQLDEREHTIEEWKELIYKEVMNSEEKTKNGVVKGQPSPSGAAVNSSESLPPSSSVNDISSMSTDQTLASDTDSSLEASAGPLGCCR
# Method: as §1, §2
# T1 sequence (P45983 whole entry): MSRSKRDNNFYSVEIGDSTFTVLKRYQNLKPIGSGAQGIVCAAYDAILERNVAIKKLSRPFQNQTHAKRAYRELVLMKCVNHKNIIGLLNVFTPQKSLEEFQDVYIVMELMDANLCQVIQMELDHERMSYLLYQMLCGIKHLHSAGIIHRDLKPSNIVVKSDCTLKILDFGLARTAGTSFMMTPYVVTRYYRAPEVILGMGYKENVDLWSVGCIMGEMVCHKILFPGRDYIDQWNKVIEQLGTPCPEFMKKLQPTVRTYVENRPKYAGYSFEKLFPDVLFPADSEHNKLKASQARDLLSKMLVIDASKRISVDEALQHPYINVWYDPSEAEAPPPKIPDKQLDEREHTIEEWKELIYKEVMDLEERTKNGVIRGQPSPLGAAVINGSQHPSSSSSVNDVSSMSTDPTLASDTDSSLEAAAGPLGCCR
Compound,IC50 [1] [nM],IC50 [2] [nM],IC50 [3] [nM]
"CNC(=O)c1cc(-n2ncc3nc(Oc4ccccc4Cl)ccc32)cs1 [Compound 49, 4-(5-(2-chlorophenoxy)-1H-pyrazolo[4,3-b]pyridin-1-yl)-N-methylthiophene-2-carboxamide]",> 1000,200 to 1000,200 to 1000
"CC(C)NC(=O)c1cc(-n2ncc3nc(Oc4ccccc4Cl)ncc32)cs1 [Compound 47, 4-(5-(2-chlorophenoxy)-1H-pyrazolo[4,3-d]pyrimidin-1-yl)-N-isopropylthiophene-2-carboxamide]",> 1000,> 1000,> 1000
"COc1ccccc1Nc1cc2cnn(-c3csc(C(=O)NC4COC4)c3)c2cc1F [Compound 77, 4-(6-fluoro-5-((2-methoxyphenyl)amino)-1H-indazol-1-yl)-N-(oxetan-3-yl)thiophene-2-carboxamide]",> 1000,< 200,< 200
"O=C(NC(CO)CO)c1cc(-n2ncc3nc(Nc4ccccc4Cl)ccc32)cs1 [Compound 53, 4-(5-((2-chlorophenyl)amino)-1H-pyrazolo[4,3-b]pyridin-1-yl)-N-(1,3-dihydroxypropan-2-yl)thiophene-2-carboxamide]",> 1000,> 1000,< 200
"CNC(=O)c1cc(-n2ncc3cc(Nc4ccccc4Cl)cnc32)c(C)s1 [Compound 65, 4-(5-((2-chlorophenyl)amino)-1H-pyrazolo[3,4-b]pyridin-1-yl)-N,5-dimethylthiophene-2-carboxamide]",200 to 1000,< 200,< 200
"CC(=O)N1CC[C@H](NC(=O)c2cc(-n3ncc4cc(Nc5ccccc5Cl)c(F)cc43)cs2)C1 [Compound 40, (S)—N-(1-acetylpyrrolidin-3-yl)-4-(5-((2-chlorophenyl)amino)-6-fluoro-1H-indazol-1-yl)thiophene-2-carboxamide]",200 to 1000,< 200,< 200
"O=C(NC1COC1)c1cc(-n2ncc3cc(Nc4ccccc4Cl)c(F)cc32)cs1 [Compound 34, 4-(5-((2-chlorophenyl)amino)-6-fluoro-1H-indazol-1-yl)-N-(oxetan-3-yl)thiophene-2-carboxamide]",> 1000,200 to 1000,< 200
"O=C(NC1COC1)c1cc(-n2ncc3nc(Nc4ccccc4Cl)ccc32)cs1 [Compound 52, 4-(5-((2-chlorophenyl)amino)-1H-pyrazolo[4,3-b]pyridin-1-yl)-N-(oxetan-3-yl)thiophene-2-carboxamide]",> 1000,200 to 1000,< 200
"O=C(N[C@H]1CCOC1)c1cc(-n2ncc3cc(Nc4ccccc4Cl)c(F)cc32)cs1 [Compound 32, (S)-4-(5-((2-chlorophenyl)amino)-6-fluoro-1H-indazol-1-yl)-N-(tetrahydrofuran-3-yl)thiophene-2-carboxamide]",< 200,< 200,< 200
"COCC(COC)NC(=O)c1cc(-n2ncc3cc(Oc4ccccc4Cl)ncc32)cs1 [Compound 12, 4-(5-(2-chlorophenoxy)-1H-pyrazolo[3,4-c]pyridin-1-yl)-N-(1,3-dimethoxypropan-2-yl)thiophene-2-carboxamide]",> 1000,> 1000,200 to 1000
"CNC(=O)c1cc(-n2ncc3cc(Nc4ccccc4OC)c(F)cc32)cs1 [Compound 80, 4-(6-fluoro-5-((2-methoxyphenyl)amino)-1H-indazol-1-yl)-N-methylthiophene-2-carboxamide]",> 1000,200 to 1000,< 200
"O=C(NC1CNC1)c1cc(-n2ncc3nc(Nc4ccccc4Cl)ncc32)cs1 [Compound 27, N-(azetidin-3-yl)-4-(5-((2-chlorophenyl)amino)-1H-pyrazolo[4,3-d]pyrimidin-1-yl)thiophene-2-carboxamide]",> 1000,> 1000,> 1000
"O=C(NC1COC1)c1cc(-n2ncc3cc(Nc4ccccc4Cl)ncc32)cs1 [Compound 20, 4-(5-((2-chlorophenyl)amino)-1H-pyrazolo[3,4-c]pyridin-1-yl)-N-(oxetan-3-yl)thiophene-2-carboxamide]",–,–,< 200
"CN1CCN=C1NC(=O)c1cc(-n2ncc3cc(Nc4ccccc4Cl)ccc32)cs1 [Compound 45, 4-(5-((2-chlorophenyl)amino)-1H-indazol-1-yl)-N-(1-methyl-4,5-dihydro-1H-imidazol-2-yl)thiophene-2-carboxamide]",–,–,< 200
"O=C(NCCCF)c1cc(-n2ncc3nc(Nc4ccccc4Cl)ncc32)cs1 [Compound 42, 4-(5-((2-chlorophenyl)amino)-1H-pyrazolo[4,3-d]pyrimidin-1-yl)-N-(3-fluoropropyl)thiophene-2-carboxamide]",–,–,< 200
"CCNC(=O)c1cc(-n2ncc3cc(Nc4ccccc4Cl)ncc32)cs1 [Compound 26, 4-(5-((2-chlorophenyl)amino)-1H-pyrazolo[3,4-c]pyridin-1-yl)-N-ethylthiophene-2-carboxamide]",–,–,< 200
"CNC(=O)c1cc(-n2ncc3cc(Oc4ccccc4Cl)ncc32)cs1 [Compound 15, 4-(5-(2-chlorophenoxy)-1H-pyrazolo[3,4-c]pyridin-1-yl)-N-methylthiophene-2-carboxamide]",–,–,< 200
"CN1C[C@@H](NC(=O)c2cc(-n3ncc4nc(Nc5ccccc5Cl)ccc43)cs2)CC1=O [Compound 60, (S)-4-(5-((2-chlorophenyl)amino)-1H-pyrazolo[4,3-b]pyridin-1-yl)-N-(1-methyl-5-oxopyrrolidin-3-yl)thiophene-2-carboxamide]",–,–,< 200
"CC(=O)N1CC(NC(=O)c2cc(-n3ncc4cc(Nc5ccccc5Cl)ccc43)cs2)C1 [Compound 29, N-(1-acetylazetidin-3-yl)-4-(5-((2-chlorophenyl)amino)-1H-indazol-1-yl)thiophene-2-carboxamide]",–,–,< 200
"O=C(NC1=NCCO1)c1cc(-n2ncc3cc(Nc4ccccc4Cl)c(F)cc32)cs1 [Compound 43, 4-(5-((2-chlorophenyl)amino)-6-fluoro-1H-indazol-1-yl)-N-(4,5-dihydrooxazol-2-yl)thiophene-2-carboxamide]",–,–,< 200
"CC(=O)N1CC(NC(=O)c2cc(-n3ncc4cc(Nc5ccccc5Cl)ncc43)cs2)C1 [Compound 22, N-(1-acetylazetidin-3-yl)-4-(5-((2-chlorophenyl)amino)-1H-pyrazolo[3,4-c]pyridin-1-yl)thiophene-2-carboxamide]",–,–,< 200

# Further lines, results first:
IC50 [1] [nM],IC50 [2] [nM],IC50 [3] [nM],Compound
< 200,< 200,< 200,"COCCNC(=O)c1cc(-n2ncc3cc(Nc4ccccc4Cl)c(F)cc32)cs1 [Compound 37, 4-(5-((2-chlorophenyl)amino)-6-fluoro-1H-indazol-1-yl)-N-(2-methoxyethyl)thiophene-2-carboxamide]"
> 1000,> 1000,< 200,"COc1cc2c(cnn2-c2csc(C(=O)NC3COC3)c2)cc1Nc1ccccc1Cl [Compound 78, 4-(5-((2-chlorophenyl)amino)-6-methoxy-1H-indazol-1-yl)-N-(oxetan-3-yl)thiophene-2-carboxamide]"
200 to 1000,200 to 1000,< 200,"CC(C)NC(=O)c1cc(-n2ncc3cc(Nc4ccccc4Cl)ncc32)cs1 [Compound 16, 4-(5-((2-chlorophenyl)amino)-1H-pyrazolo[3,4-c]pyridin-1-yl)-N-isopropylthiophene-2-carboxamide]"
> 1000,> 1000,< 200,"O=C(NC1COC1)c1cc(-n2ncc3cc(Oc4ccccc4Cl)cnc32)cs1 [Compound 70, 4-(5-(2-chlorophenoxy)-1H-pyrazolo[3,4-b]pyridin-1-yl)-N-(oxetan-3-yl)thiophene-2-carboxamide]"
200 to 1000,200 to 1000,< 200,"CNC(=O)c1cc(-n2ncc3cc(N(C)c4ccccc4OC)c(F)cc32)cs1 [Compound 75, 4-(6-fluoro-5-((2-methoxyphenyl)(methyl)amino)-1H-indazol-1-yl)-N-methylthiophene-2-carboxamide]"
> 1000,> 1000,< 200,"COCCNC(=O)c1cc(-n2ncc3cc(Oc4ccccc4Cl)ncc32)cs1 [Compound 14, 4-(5-(2-chlorophenoxy)-1H-pyrazolo[3,4-c]pyridin-1-yl)-N-(2-methoxyethyl)thiophene-2-carboxamide]"
> 1000,200 to 1000,< 200,"[2H]C([2H])([2H])N1CC[C@@H](NC(=O)c2cc(-n3ncc4cc(Oc5ccccc5Cl)ccc43)cs2)C1 [Compound 13, (R)-4-(5-(2-chlorophenoxy)-1H-indazol-1-yl)-N-(1-(methyl-d3)pyrrolidin-3-yl)thiophene-2-carboxamide]"
200 to 1000,200 to 1000,< 200,"CC1COC(NC(=O)c2cc(-n3ncc4cc(Nc5ccccc5Cl)cnc43)cs2)=N1 (stereo not drawn) [Compound 69, 4-(5-((2-chlorophenyl)amino)-1H-pyrazolo[3,4-b]pyridin-1-yl)-N-(4-methyl-4,5-dihydrooxazol-2-yl)thiophene-2-carboxamide]"
200 to 1000,200 to 1000,< 200,CNC(=O)c1cc(-n2ncc3cc(Nc4c(F)cccc4Cl)c(COC)cc32)cs1 [Compound 152]
< 200,< 200,< 200,"O=C(NC1CCOCC1)c1cc(-n2ncc3cc(Nc4ccccc4Cl)c(F)cc32)cs1 [Compound 38, 4-(5-((2-chlorophenyl)amino)-6-fluoro-1H-indazol-1-yl)-N-(tetrahydro-2H-pyran-4-yl)thiophene-2-carboxamide]"
